From PubChem BioAssay (NCI) come the findings set out here.

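Five concentrations, 48 hours, 96-well plates. The concentration for 50% growth inhibition is given as GI50. TGI is the concentration that stops growth completely.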 A value given as a limit tells only on which side of the number the result lay.

Some test systems named below: SK-MEL-5 melanoma; SF-539 CNS; OVCAR-4 ovarian; UACC-62 melanoma; NCI-H23 lung; OVCAR-3 ovarian; 786-0 renal; HCT-116 colon; RPMI-8226 leukemia.
What all share (assay): growth of human tumour cells (NCI), 48 h

As to `COC(=O)C(=O)C(C(=O)C(=O)Nc1cccc(C(C)=O)c1)c1nc2ccccc2[nH]c1=O` (stereo not given), the TGI in the experiment with SK-MEL-5 melanoma, in the experiment with SF-539 CNS, with OVCAR-4 ovarian, with UACC-62 melanoma, in the experiment on NCI-H23 lung and in the experiment with OVCAR-3 ovarian was above 100 µM each time. Moreover, the TGI in the experiment with 786-0 renal was above 100 µM.

For `COc1cc(C(=O)Nc2cc3c(cc2Oc2cc(C)cc(C)c2)C(=O)N(C)[C@@H](CC(=O)N(C)O)C(=O)N3)c(Br)c(OC)c1OC`, the GI50 in the experiment with SK-MEL-5 melanoma, with HCT-116 colon, with SF-539 CNS, in the experiment with OVCAR-4 ovarian, in the experiment on UACC-62 melanoma and with NCI-H23 lung was below 0.00333 µM throughout. Also, the GI50 with OVCAR-3 ovarian is below 0.00333 µM; with RPMI-8226 leukemia, below 0.00333 µM; in the experiment on 786-0 renal, 0.00824 µM. For the same compound, the TGI in the experiment on SK-MEL-5 melanoma is 0.0116 µM; with HCT-116 colon, below 0.00333 µM; with SF-539 CNS, below 0.00333 µM; with OVCAR-4 ovarian, below 0.00333 µM; with UACC-62 melanoma it was below 0.00333 µM; with NCI-H23 lung it was 0.00543 µM. For the same compound, the TGI is below 0.00333 µM with OVCAR-3 ovarian, below 0.00333 µM in the experiment on RPMI-8226 leukemia and 0.0429 µM in the experiment with 786-0 renal.

On to `CCOc1cccc(/C=N/NC(=O)C(=O)Nc2cccc(C(F)(F)F)c2)c1O`, for which the GI50 with SK-MEL-5 melanoma is 1.87 µM; with HCT-116 colon, 1.02 µM; in the experiment with SF-539 CNS, 2.18 µM; with OVCAR-4 ovarian it was 0.398 µM; in the experiment with UACC-62 melanoma it was 1.06 µM; in the experiment with NCI-H23 lung, 4.57 µM. The GI50 was 0.407 µM with OVCAR-3 ovarian, 2.08 µM in the experiment with RPMI-8226 leukemia and 3.27 µM with 786-0 renal. Besides, the TGI in the experiment with SK-MEL-5 melanoma is 19 µM; with HCT-116 colon, above 100 µM; in the experiment with SF-539 CNS, 11.2 µM; in the experiment with OVCAR-4 ovarian it was above 100 µM; in the experiment on UACC-62 melanoma, 4.51 µM; with NCI-H23 lung, above 100 µM. The TGI in the experiment with OVCAR-3 ovarian is above 100 µM; in the experiment with RPMI-8226 leukemia it was above 100 µM; in the experiment on 786-0 renal, 41.3 µM.

Consider `Cc1sc2nc3c4ccccc4c(NCCCN(C)C)nn3c(=O)c2c1C`, for which the GI50 in the experiment with SK-MEL-5 melanoma was 3.01 µM; with HCT-116 colon it was 4.03 µM; with SF-539 CNS, 1.65 µM; with OVCAR-4 ovarian, 12.1 µM; in the experiment on NCI-H23 lung it was 8.45 µM; in the experiment with OVCAR-3 ovarian, 11.3 µM. In addition, the GI50 in the experiment on RPMI-8226 leukemia is 4.8 µM; in the experiment with 786-0 renal it was 9.14 µM. Besides, the TGI in the experiment with SK-MEL-5 melanoma worked out at 9.8 µM; in the experiment on HCT-116 colon, 12.7 µM; with SF-539 CNS, 3.04 µM; in the experiment on OVCAR-4 ovarian it was 24.9 µM; with NCI-H23 lung it was 23 µM; in the experiment on OVCAR-3 ovarian, 24.3 µM. The TGI in the experiment on RPMI-8226 leukemia was found to be 11.7 µM; in the experiment with 786-0 renal, 21.9 µM.

As for `O=C(O)C1CCCCC1C(=O)O.[NH-]C1CCC1.[NH2-].[Pt+2]` (stereo not given), the GI50 in the experiment with SK-MEL-5 melanoma is 3.36 µM; in the experiment with HCT-116 colon it was 16.1 µM; in the experiment with SF-539 CNS, 17 µM; in the experiment on OVCAR-4 ovarian it was 15.2 µM; in the experiment on UACC-62 melanoma it was 11.4 µM; in the experiment with NCI-H23 lung, 22.4 µM. In addition, the GI50 with OVCAR-3 ovarian is 15.8 µM; in the experiment with 786-0 renal, 15.4 µM. The TGI with SK-MEL-5 melanoma was 12.5 µM; in the experiment with HCT-116 colon it was 36.2 µM; with SF-539 CNS, 33.2 µM; in the experiment with OVCAR-4 ovarian it was 29.7 µM; in the experiment on UACC-62 melanoma it was 23.6 µM; with NCI-H23 lung it was above 100 µM. Also, the TGI amounted to 30.4 µM with OVCAR-3 ovarian and 33 µM with 786-0 renal.

Consider `CN(C)CCCNC(=O)c1ccc2c(c1)oc1cc3ccccc3c(=O)n12`, for which the GI50 was 6.1 µM with SK-MEL-5 melanoma; 19.3 µM in the experiment on HCT-116 colon; 40.9 µM in the experiment with OVCAR-4 ovarian; above 50 µM in the experiment with UACC-62 melanoma; 35.4 µM with NCI-H23 lung; 9.24 µM in the experiment with OVCAR-3 ovarian. In addition, the figures for the GI50 in the experiment with RPMI-8226 leukemia and with 786-0 renal were 17.1 µM and above 50 µM, respectively. In addition, the TGI was 13 µM in the experiment with SK-MEL-5 melanoma; above 50 µM with HCT-116 colon; above 50 µM in the experiment with OVCAR-4 ovarian; above 50 µM in the experiment on UACC-62 melanoma; above 50 µM with NCI-H23 lung; 23.9 µM with OVCAR-3 ovarian. The TGI with RPMI-8226 leukemia and with 786-0 renal was above 50 µM each time.

Take `CCCOc1ccc2nc(NC(=O)OC)[nH]c2c1`: the GI50 with SK-MEL-5 melanoma is 0.0796 µM; in the experiment with HCT-116 colon, 0.22 µM; in the experiment on OVCAR-4 ovarian it was 0.6 µM; with UACC-62 melanoma, 0.215 µM; with NCI-H23 lung it was 0.34 µM; in the experiment on OVCAR-3 ovarian it was 0.396 µM. Also, the GI50 with RPMI-8226 leukemia was 0.502 µM; with 786-0 renal, 0.47 µM. The TGI was 1.73 µM in the experiment on SK-MEL-5 melanoma; above 100 µM in the experiment with HCT-116 colon; above 100 µM in the experiment with OVCAR-4 ovarian; above 100 µM with UACC-62 melanoma; above 100 µM in the experiment with NCI-H23 lung; above 100 µM with OVCAR-3 ovarian. For the same compound, the TGI in the experiment with RPMI-8226 leukemia and with 786-0 renal was above 100 µM throughout.

As to `COc1cc(-c2cn(-c3ccc(Cl)c(Cl)c3)c(=O)n2C(C)=O)cc(OC)c1OC`, the GI50 in the experiment with SK-MEL-5 melanoma is 12.7 µM; with HCT-116 colon, 13.7 µM; in the experiment with SF-539 CNS, 2.07 µM; in the experiment on OVCAR-4 ovarian, 5.21 µM; with UACC-62 melanoma, 13.3 µM; in the experiment with OVCAR-3 ovarian it was 14.9 µM. For the same compound, the values for the GI50 in the experiment on RPMI-8226 leukemia and in the experiment with 786-0 renal were 10.5 µM and 2.79 µM, respectively. The TGI is 25.3 µM with SK-MEL-5 melanoma; 27.9 µM in the experiment with HCT-116 colon; 4.29 µM in the experiment with SF-539 CNS; above 100 µM with OVCAR-4 ovarian; 26 µM in the experiment with UACC-62 melanoma; 38.1 µM with OVCAR-3 ovarian. Besides, the TGI was 32.3 µM with RPMI-8226 leukemia and 11.5 µM in the experiment on 786-0 renal.

In the case of `COc1ccc2c(c1)/C(=C\c1c(Cl)[nH]c3ccc(OC)cc13)C(=O)N2`, the TGI with SK-MEL-5 melanoma was 25.3 µM; in the experiment on HCT-116 colon, 30.6 µM; in the experiment on OVCAR-4 ovarian, above 100 µM; in the experiment with UACC-62 melanoma it was above 100 µM; in the experiment on NCI-H23 lung, above 100 µM; with OVCAR-3 ovarian, above 100 µM. Moreover, the TGI in the experiment on RPMI-8226 leukemia and in the experiment with 786-0 renal was above 100 µM each time. Besides, the GI50 in the experiment on HCT-116 colon was 16.3 µM; in the experiment with OVCAR-4 ovarian, 41.8 µM; in the experiment on UACC-62 melanoma it was 35.2 µM; with NCI-H23 lung, above 100 µM; in the experiment on OVCAR-3 ovarian, 29.4 µM; in the experiment on RPMI-8226 leukemia, 33.3 µM. Besides, in the experiment with 786-0 renal, the GI50 is 43.7 µM.

`CCN(CC)C(=S)SC`: the TGI with SK-MEL-5 melanoma, with HCT-116 colon, in the experiment on SF-539 CNS, with UACC-62 melanoma, with NCI-H23 lung and in the experiment with OVCAR-3 ovarian was above 100 µM in each case. In addition, the TGI in the experiment on RPMI-8226 leukemia and in the experiment on 786-0 renal was above 100 µM throughout.

For the compound `O=C1NC(=S)S/C1=C(/C=C(\CC(=O)c1ccccc1)c1ccc(Cl)cc1)c1ccccc1`, the GI50 is 19.1 µM in the experiment on SK-MEL-5 melanoma; 31.8 µM in the experiment on HCT-116 colon; 39 µM in the experiment with SF-539 CNS; 44.9 µM in the experiment with OVCAR-4 ovarian; 21.6 µM in the experiment with UACC-62 melanoma; 21.8 µM in the experiment with NCI-H23 lung. Moreover, the GI50 in the experiment with OVCAR-3 ovarian is 24.2 µM; in the experiment on 786-0 renal it was 46.9 µM. Besides, the TGI in the experiment on SK-MEL-5 melanoma was 34.3 µM; in the experiment with HCT-116 colon, above 100 µM; with SF-539 CNS, above 100 µM; in the experiment on OVCAR-4 ovarian, above 100 µM; in the experiment on UACC-62 melanoma, 43.7 µM; in the experiment with NCI-H23 lung, 48.8 µM. For the same compound, the TGI in the experiment with OVCAR-3 ovarian and in the experiment with 786-0 renal was above 100 µM each time.

As for `CCOC(=O)/C=C/C1=C(c2cccs2)c2ccccc2CC1`, the GI50 with SK-MEL-5 melanoma was 16.8 µM; in the experiment with HCT-116 colon, 25.4 µM; with OVCAR-4 ovarian it was 38.9 µM; in the experiment with UACC-62 melanoma, 18.7 µM; in the experiment on NCI-H23 lung, 28.8 µM; in the experiment with OVCAR-3 ovarian, 29.5 µM. The figures for the GI50 in the experiment on RPMI-8226 leukemia and in the experiment on 786-0 renal were 21.2 µM and 35.5 µM, respectively. In addition, the TGI with SK-MEL-5 melanoma is 31.8 µM; with HCT-116 colon, 79.5 µM; in the experiment with OVCAR-4 ovarian, above 100 µM; in the experiment on UACC-62 melanoma, 40.9 µM; in the experiment with NCI-H23 lung, 89.4 µM; in the experiment with OVCAR-3 ovarian, above 100 µM. The TGI is 49.4 µM with RPMI-8226 leukemia and above 100 µM in the experiment with 786-0 renal.

Turning to `Cc1nc2sccn2c1-c1csc(Nc2cccc(Cl)c2C)n1`, the GI50 was 1.52 µM in the experiment with SK-MEL-5 melanoma; 4.67 µM with HCT-116 colon; 6.61 µM in the experiment with SF-539 CNS; 3.05 µM with OVCAR-4 ovarian; 3.93 µM in the experiment with UACC-62 melanoma; 5.23 µM in the experiment on OVCAR-3 ovarian. The figures for the GI50 in the experiment with RPMI-8226 leukemia and with 786-0 renal were 3.83 µM and 9.62 µM, respectively. Also, the TGI was 3.92 µM with SK-MEL-5 melanoma; 20.1 µM in the experiment on HCT-116 colon; 25.3 µM in the experiment with SF-539 CNS; above 100 µM with OVCAR-4 ovarian; 19.8 µM in the experiment on UACC-62 melanoma; 32.2 µM in the experiment on OVCAR-3 ovarian. Moreover, the TGI in the experiment with RPMI-8226 leukemia was determined as 33.3 µM; in the experiment with 786-0 renal, 79.7 µM.

For the compound `COC(=O)c1ccccc1NC(=O)C(=O)NNC(=O)c1ccncc1`, the TGI with SK-MEL-5 melanoma, with HCT-116 colon, in the experiment on SF-539 CNS, with OVCAR-4 ovarian, with UACC-62 melanoma and in the experiment with NCI-H23 lung was above 100 µM in each case. Also, the TGI in the experiment with OVCAR-3 ovarian and in the experiment on 786-0 renal was above 100 µM throughout.

For `COc1ccc(/C=C\c2cc(OC)c(O[Si](C)(C)C(C)(C)C)c(OC)c2)cc1`, the TGI in the experiment on HCT-116 colon, in the experiment with SF-539 CNS, with OVCAR-4 ovarian, in the experiment on UACC-62 melanoma, in the experiment on NCI-H23 lung and in the experiment on OVCAR-3 ovarian was above 100 µM throughout. Moreover, the values for the TGI in the experiment with RPMI-8226 leukemia and in the experiment with 786-0 renal were 83.3 µM and above 100 µM, respectively.
